# Structures can show the parent of a compound that is named as a salt.
# Target: T1, human 5-HT4(a) (Homo sapiens, UniProt Q13639)
# T1 construct: host or cells: GeneBIAzer HTR4-CRE-bla CHO-K1 cells
# Assay: Evaluation of agonistic activity in CHO-K1 cells expressing human 5-HT4(a) (GeneBIAzer HTR4-CRE-bla CHO-K1 cells, beta-lactamase fluorescence ratio, EC50 from 8 concentrations)
# Format: cell-based
# Method in brief: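 HTR4-CRE-bla CHO-K1 cells (10^4 per well, overnight in 1% FBS medium) exposed to compound for 5 h, then beta-lactamase substrate 2 h in the dark. Fluorescence ratio at 465/535 nm after 410 nm excitation; EC50 by non-linear regression over 8 concentrations.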
# T1 sequence (Q13639 1-387 isoform Q13639-2): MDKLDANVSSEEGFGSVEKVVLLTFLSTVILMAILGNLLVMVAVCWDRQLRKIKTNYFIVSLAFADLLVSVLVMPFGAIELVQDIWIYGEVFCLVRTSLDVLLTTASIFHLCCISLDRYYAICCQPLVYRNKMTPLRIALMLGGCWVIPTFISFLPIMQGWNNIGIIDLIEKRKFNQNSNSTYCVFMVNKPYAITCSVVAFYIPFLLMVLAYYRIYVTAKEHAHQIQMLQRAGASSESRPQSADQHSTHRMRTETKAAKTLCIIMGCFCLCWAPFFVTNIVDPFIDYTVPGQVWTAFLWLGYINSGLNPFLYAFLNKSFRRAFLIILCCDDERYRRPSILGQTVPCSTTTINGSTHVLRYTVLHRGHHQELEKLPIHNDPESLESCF
row,EC50,SMILES
1,18 pM,"CCCc1cc(N2CCCC(NC(C)=O)C2)nc(Nc2ccc(F)c(N)c2)n1 (stereo not shown) [Example 276, N-{1-[2-(3-amino-4-fluorophenylamino)-6-propylpyrimidin-4-yl]piperidin-3-yl}acetamide]"
2,14 pM,"CCCc1cc(N2CCC[C@@H](NC(C)=O)C2)nc(Nc2ccc(F)c(C(F)(F)F)c2)n1 [Example 277, (R)—N-{1-[2-(4-fluoro-3-trifluoromethylphenylamino)-6-propylpyrimidin-4-yl]piperidin-3-yl}acetamide]"
3,14 pM,"CCCc1cc(N2CCC[C@@H](NC(C)=O)C2)nc(Nc2ccc(N)c(C(F)(F)F)c2)n1 [Example 279, (R)—N-(1-{2-[4-amino-3-(trifluoromethyl)phenylamino]-6-propylpyrimidin-4-yl}piperidin-3-yl)acetamide]"
4,3.2 pM,"CCCc1cc(N2CCC[C@@H](NC)C2)nc(Nc2cc(N)cc(C(F)(F)F)c2)n1 [Example 284, (R)—N^1-[4-(3-methylaminopiperidin-1-yl)-6-propylpyrimidin-2-yl]-5-(trifluoromethyl)benzene-1,3-diamine]"
5,5 pM,"CCCc1cc(N2CCC[C@@H](NC)C2)nc(Nc2ccc(N)c(C(F)(F)F)c2)n1 [Example 285, (R)—N^1-[4-(3-methylaminopiperidin-1-yl)-6-propylpyrimidin-2-yl]-3-(trifluoromethyl)benzene-1,4-diamine]"
6,26 pM,"CCCc1cc(N2CCC[C@@H](NC)C2)nc(Nc2ccc(F)c(C(F)(F)F)c2)n1 [Example 287, (R)-(4-fluoro-3-trifluoromethylphenyl)-[4-(3-methylaminopiperidin-1-yl)-6-propylpyrimidin-2-yl]amine]"
7,4.6 pM,"CCCc1cc(N2CCC[C@@H](NCC)C2)nc(Nc2ccc(N)c([N+](=O)[O-])c2)n1 [Example 288, (R)—N^1-[4-(3-ethylaminopiperidin-1-yl)-6-propylpyrimidin-2-yl]-3-nitrobenzene-1,4-diamine]"
8,6.5 pM,"CCCc1cc(N2CCC[C@@H](NCC)C2)nc(Nc2ccc(F)c(N)c2)n1 [Example 289, (R)—N^1-[4-(3-ethylaminopiperidin-1-yl)-6-propylpyrimidin-2-yl]-4-fluorobenzene-1,3-diamine]"
9,4.1 pM,"CCCc1cc(N2CCC[C@@H](NCC)C2)nc(Nc2cc(N)cc(C(F)(F)F)c2)n1 [Example 290, (R)—N^1-[4-(3-ethylaminopiperidin-1-yl)-6-propylpyrimidin-2-yl]-5-(trifluoromethyl)benzene-1,3-diamine]"
10,2.8 pM,"CCCc1cc(N2CCC[C@@H](NCC)C2)nc(Nc2ccc(N)c(C(F)(F)F)c2)n1 [Example 291, (R)—N^1-[4-(3-ethylaminopiperidin-1-yl)-6-propylpyrimidin-2-yl]-3-(trifluoromethyl)benzene-1,4-diamine]"
11,19 pM,"CCCc1cc(N2CCC[C@@H](NCC)C2)nc(Nc2cc(N)cc(C#N)c2)n1 [Example 292, (R)-3-amino-5-[4-(3-ethylaminopiperidin-1-yl)-6-propylpyrimidin-2-ylamino]benzonitrile]"
12,15 pM,"CCCc1cc(N2CCC[C@H](NCC)C2)nc(Nc2ccc(C)c(C#N)c2)n1 [Example 296, (S)-5-[4-(3-ethylaminopiperidin-1-yl)-6-propylpyrimidin-2-ylamino]-2-methylbenzonitrile dihydrochloride]"
13,2.4 pM,"CCCc1cc(N2CCCC(NCC)C2)nc(Nc2ccc(C)c(C#N)c2)n1 (stereo not shown) [Example 297, 5-[4-(3-ethylaminopiperidin-1-yl)-6-propylpyrimidin-2-ylamino]-2-methylbenzonitrile dihydrochloride]"
14,4 pM,"CCCCc1cc(N2CCC[C@@H](NCC)C2)nc(Nc2ccc(C)c(C#N)c2)n1 [Example 299, (R)-5-({4-butyl-6-[3-(ethylamino)piperidin-1-yl]pyrimidin-2-yl}amino)-2-methylbenzonitrile]"
15,15 pM,"CCCc1cc(N2CCC[C@@H](NC)C2)nc(Nc2ccc(F)c(N)c2)n1 [Example 306, (R)-4-fluoro-N^1-{4-[3-(methylamino)piperidin-1-yl]-6-propylpyrimidin-2-yl}benzene-1,3-diamine]"
16,4 pM,"CCCc1cc(N2CCC[C@@H](NC)C2)nc(Nc2ccc(Cl)c(N)c2)n1 [Example 307, (R)-4-chloro-N^1-{4-[3-(methylamino)piperidin-1-yl]-6-propylpyrimidin-2-yl}benzene-1,3-diamine]"
17,13 pM,"CCCc1cc(N2CCC[C@@H](NC)C2)nc(Nc2ccc(N)c(C#N)c2)n1 [Example 308, (R)-2-amino-5-({4-[3-(methylamino)piperidin-1-yl]-6-propylpyrimidin-2-yl}amino)benzonitrile]"
18,47 pM,"CCCc1cc(N2CCC[C@@H](NC)C2)nc(Nc2ccc(C)c(N)c2)n1 [Example 310, (R)-4-methyl-N^1-{4-[3-(methylamino)piperidin-1-yl]-6-propylpyrimidin-2-yl}benzene-1,3-diamine]"

# Second part, the compound before the results:
row,SMILES,EC50
1,"CCCCc1cc(N2CCC[C@@H](NC(C)=O)C2)nc(Nc2cccc(C#N)c2)n1 [Example 272, (R)—N-{1-[6-butyl-2-(3-cyanophenylamino)-pyrimidin-4-yl]-piperidin-3-yl}-acetamide hydrochloride]",11 pM
2,"CCCc1cc(N2CCC[C@@H](NC(C)=O)C2)nc(Nc2cccc(C#N)c2)n1 [Example 273, (R)—N-{1-[2-(3-cyanophenylamino)-6-propylpyrimidin-4-yl]piperidin-3-yl}acetamide]",46 pM
3,"CCCc1cc(N2CCC[C@@H](NC(C)=O)C2)nc(Nc2cc(N)cc(C#N)c2)n1 [Example 274, (R)—N-{1-[2-(3-amino-5-cyanophenylamino)-6-propylpyrimidin-4-yl]piperidin-3-yl}acetamide]",6 pM
4,"CCCc1cc(N2CCCC(NC(C)=O)C2)nc(Nc2ccc(N)c([N+](=O)[O-])c2)n1 (stereo not shown) [Example 275, N-{1-[2-(4-amino-3-nitrophenylamino)-6-propylpyrimidin-4-yl]piperidin-3-yl}acetamide]",3.4 pM
5,"CCCc1cc(N2CCC[C@@H](NC(C)=O)C2)nc(Nc2cc(N)cc(C(F)(F)F)c2)n1 [Example 278, (R)—N-(1-{2-[3-amino-5-(trifluoromethyl)phenylamino]-6-propylpyrimidin-4-yl}piperidin-3-yl)acetamide]",10 pM
6,"CCCc1cc(N2CCC[C@@H](NC)C2)nc(Nc2ccc(F)c(C#N)c2)n1 [Example 282, (R)-2-fluoro-5-[4-(3-methylaminopiperidin-1-yl)-6-propylpyrimidin-2-ylamino]benzonitrile]",73 pM
7,"CCCc1cc(N2CCC[C@@H](NC)C2)nc(Nc2ccc(C)c(C#N)c2)n1 [Example 283, (R)-2-methyl-5-[4-(3-methylaminopiperidin-1-yl)-6-propylpyrimidin-2-ylamino]benzonitrile]",8.4 pM
8,"CCCc1cc(N2CCC[C@@H](NC)C2)nc(Nc2cc(N)cc(C#N)c2)n1 [Example 286, (R)-3-amino-5-[4-(3-methylaminopiperidin-1-yl)-6-propylpyrimidin-2-ylamino]benzonitrile]",4.4 pM
9,"CCCCc1cc(N2CCC[C@@H](N)C2)nc(Nc2ccc(C)c(C#N)c2)n1 [Example 293, (R)-5-[4-(3-aminopiperidin-1-yl)-6-butylpyrimidin-2-ylamino]-2-methylbenzonitrile]",23 pM
10,"CCCCc1cc(N2CCC[C@@H](N)C2)nc(Nc2ccc(F)c(C#N)c2)n1 [Example 294, (R)-5-[4-(3-aminopiperidin-1-yl)-6-butylpyrimidin-2-ylamino]-2-fluorobenzonitrile]",108 pM
11,"CCCCc1cc(N2CCC[C@@H](NC(C)=O)C2)nc(Nc2ccc(C)c(C#N)c2)n1 [Example 295, (R)—N-{1-[6-butyl-2-(3-cyano-4-methylphenylamino)pyrimidin-4-yl]piperidin-3-yl}acetamide]",8.6 pM
12,"CCCCc1cc(N2CCCC(NC(C)=O)C2)nc(Nc2ccc(C)c(C#N)c2)n1 (stereo not shown) [Example 298, N-{1-[6-butyl-2-(3-cyano-4-methylphenylamino)pyrimidin-4-yl]piperidin-3-yl}acetamide hydrochloride]",12 pM
13,"CCCCN[C@@H]1CCCN(c2cc(CCCC)nc(Nc3ccc(C)c(C#N)c3)n2)C1 [Example 300, (R)-5-({4-butyl-6-[3-(butylamino)piperidin-1-yl]pyrimidin-2-yl}amino)-2-methylbenzonitrile]",9.7 pM
14,"CCCCCN[C@@H]1CCCN(c2cc(CCCC)nc(Nc3ccc(C)c(C#N)c3)n2)C1 [Example 301, (R)-5-({4-butyl-6-[3-(pentylamino)piperidin-1-yl]pyrimidin-2-yl}amino)-2-methylbenzonitrile]",19 pM
15,"CCCCc1cc(N2CCC[C@@H](NCC(C)C)C2)nc(Nc2ccc(C)c(C#N)c2)n1 [Example 302, (R)-5-({4-butyl-6-[3-(isobutylamino)piperidin-1-yl]pyrimidin-2-yl}amino)-2-methylbenzonitrile]",19 pM
16,"CCCCc1cc(N2CCC[C@@H](NCCC(C)C)C2)nc(Nc2ccc(C)c(C#N)c2)n1 [Example 303, (R)-5-({4-butyl-6-[3-(isopentylamino)piperidin-1-yl]pyrimidin-2-yl}amino)-2-methylbenzonitrile]",25 pM
17,"CCCCc1cc(N2CCC[C@@H](NCC(C)(C)C)C2)nc(Nc2ccc(C)c(C#N)c2)n1 [Example 304, (R)-5-({4-butyl-6-[3-(neopentylamino)piperidin-1-yl]pyrimidin-2-yl}amino)-2-methylbenzonitrile]",49 pM
18,"CCCCc1cc(N2CCC[C@@H](NCCCSC)C2)nc(Nc2ccc(C)c(C#N)c2)n1 [Example 305, (R)-5-{[4-butyl-6-(3-{[3-(methylthio)propyl]amino}piperidin-1-yl)pyrimidin-2-yl]amino}-2-methylbenzonitrile]",9.1 pM
19,"CCCc1cc(N2CCC[C@@H](NC)C2)nc(Nc2ccc(C)c(OC)c2)n1 [Example 309, (R)—N-(3-methoxy-4-methylphenyl)-4-[3-(methylamino)piperidin-1-yl]-6-propylpyrimidin-2-amine]",11 pM

# Reference: US9850227B2 (YUHAN CORPORATION, priority 2011, dated 2017)
